Molecular target: T1, rat mGlu2 (Rattus norvegicus, UniProt P31421)
T1 construct: expressed in transfected cells; host or cells: HEK-293 cells stably co-expressing GIRK channels
Experiment: mGlu GIRK cell-based thallium flux assay, rat mGlu2
Conditions: HEK-293 cells co-expressing rat mGlu2 and GIRK, EC80 glutamate
Procedure: Human embryonic kidney (HEK-293) cell lines stably co-expressing human or rat mGlu2 and G protein-coupled inwardly rectifying potassium (GIRK) channels, or human mGlu3 and GIRK, were used for in vitro evaluation of compound activity in thallium flux assay using a fluorescent thallium indicator dye.
The day before the assay, GIRK cells co-expressing human mGlu3, human or rat mGlu2, as described above, were plated in black-walled, clear-bottomed, amine-coated 384-well plates at a density of 15,000 cells/20 μL/well in the assay medium (glutamine-depleted basal DMEM supplemented with 10% dialyzed FBS, 20 mM HEPES, 1 mM sodium pyruvate). Cells were incubated at 37° C. in the presence of 5% CO2. The next day, assay buffer (Hanks balanced salt solution, 20 mM HEPES, 4.16 mM sodium bicarbonate, pH 7.2) was prepared to dilute compounds and Thallos AM fluorescent dye solution. The 2× Thallos dye solution (final concentration 0.34 μM to the cells) was prepared by mixing the dye stock (2.97 mM in DMSO) to 1:1 with 10% pluronic acid before adding to the assay buffer. Cells were washed with assay buffer using a microplate washer to remove the medium, resulting in 20 μL of buffer remaining in each well. Immediately, 20 μL of 2× Thallos dye solution was added to cells, and incubated for one hour at 25° C. During the cell dye loading incubation period, a 10-point concentration serial dilution of compound was created from a 10 mM DMSO compound stock by performing a 1:3 serial dilution in DMSO using the Bravo liquid handler. The 2× compound plate was generated by transferring 0.24 μL of the diluted compound in each well to a daughter plate using an Echo acoustic liquid handler. This is further diluted in 40 μL assay buffer, resulting in a range from 30 μM to 1.5 nM final concentration in the assay. The agonist plate (5×) was prepared to include EC80 glutamate concentration (a concentration to elicit 80% of a maximally effective glutamate concentration) in thallium buffer (125 mM […], 1 mM magnesium sulfate, 1.8 mM calcium sulfate, 5 mM glucose, 10 mM HEPES, pH 7.2, 12.5 mM thallium sulfate).
After dye-loading, cell plates were washed with assay buffer to remove excess extracellular dye using a microplate washer, resulting in 20 μL of buffer remaining in each well. After a ten-minute equilibration period, cell, compound and agonist plates were loaded into a Hamamatsu μCell kinetic imaging plate reader equipped with liquid handler to monitor fluorescence changes at 480 nm excitation and 540 nm emission settings. Briefly, after collection of baseline fluorescence, 20 μL of compound was added and incubated for two minutes and twenty seconds. This is immediately followed by adding 10 μL of glutamate-thallium buffer to the wells containing compound. The fluorescent signal was monitored an additional 2.5 minutes after the glutamate addition. Multiple reference wells containing no compound received either no glutamate (for a baseline reference), EC80 glutamate, or ECmax glutamate (for normalization to maximum response). Fluorescence was measured throughout the experiment at a frequency of 1 measurement per every 2 seconds before the glutamate addition and a frequency of 1 measurement per every 1 second after the glutamate addition. Each compound concentration series occurred one time in each plate, and replicates from two or three plates were used in each experimental run. Thallium solutions were handled and disposed of according to guidelines from the Vanderbilt University Chemical Safety department.
Data were normalized using a static ratio function (F/F0) by dividing every fluorescent measurement by the initial fluorescent value for the corresponding well. The increase in signal resulting from the glutamate/thallium addition of the second add was measured by determining the slope from 3 seconds to 13 seconds after the addition. […]

T1 sequence (P31421 19-872): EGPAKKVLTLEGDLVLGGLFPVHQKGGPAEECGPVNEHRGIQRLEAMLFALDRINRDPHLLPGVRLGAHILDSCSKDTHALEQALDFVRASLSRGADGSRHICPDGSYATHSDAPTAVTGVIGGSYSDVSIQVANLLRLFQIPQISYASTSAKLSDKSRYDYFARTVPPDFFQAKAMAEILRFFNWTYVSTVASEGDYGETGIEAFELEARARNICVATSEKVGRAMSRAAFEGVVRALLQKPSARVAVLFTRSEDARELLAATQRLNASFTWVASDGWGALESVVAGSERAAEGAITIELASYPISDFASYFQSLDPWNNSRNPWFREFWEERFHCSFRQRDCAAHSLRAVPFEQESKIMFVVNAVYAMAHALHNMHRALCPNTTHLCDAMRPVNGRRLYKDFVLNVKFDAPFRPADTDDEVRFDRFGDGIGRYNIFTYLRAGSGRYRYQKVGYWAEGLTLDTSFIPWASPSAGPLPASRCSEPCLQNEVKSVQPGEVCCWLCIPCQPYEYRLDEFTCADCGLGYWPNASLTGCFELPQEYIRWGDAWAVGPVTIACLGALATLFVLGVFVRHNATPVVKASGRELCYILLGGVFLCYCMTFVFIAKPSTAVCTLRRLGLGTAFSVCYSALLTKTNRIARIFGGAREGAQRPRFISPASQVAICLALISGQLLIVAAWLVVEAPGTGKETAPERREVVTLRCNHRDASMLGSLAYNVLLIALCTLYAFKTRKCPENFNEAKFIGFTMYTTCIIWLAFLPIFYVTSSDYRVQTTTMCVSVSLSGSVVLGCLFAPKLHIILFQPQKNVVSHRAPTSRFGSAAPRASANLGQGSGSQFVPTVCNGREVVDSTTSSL

Row | Compound | IC50 [µM]
1 | O=C1NCc2cc(-c3ccc4scnc4c3)c(-c3ccc(F)cc3F)cc21 [Compound 23, 5-(benzo[d]thiazol-5-yl)-6-(2,4-difluorophenyl)isoindolin-1-one] | 2.15
2 | O=C1NCc2cc(-c3ccc(C4CC4)nc3)c(-c3ccc(F)cc3F)cc21 [Compound 70, 5-(6-cyclopropylpyridin-3-yl)-6-(2,4-difluorophenyl)isoindolin-1-one] | 1.98
3 | CC1(C)C=C(c2cc3c(cc2-c2ccc(F)cc2)C(=O)NC3)CC(C)(C)N1 [Compound 59, 6-(4-fluorophenyl)-5-(2,2,6,6-tetramethyl-1,2,3,6-tetrahydropyridin-4-yl)isoindolin-1-one] | > 10
4 | O=C1NCc2cc(-c3ccc(F)nc3F)c(-c3ccc(F)cc3)cc21 [Compound 32, 5-(2,6-difluoropyridin-3-yl)-6-(4-fluorophenyl)isoindolin-1-one] | > 10
5 | O=C1NCc2cc(-c3ccc4cccnc4c3)c(-c3ccc(F)cc3)cc21 [Compound 18, 6-(4-fluorophenyl)-5-(quinolin-7-yl)isoindolin-1-one] | 4.33
6 | Cn1cc2cc(-c3cc4c(cc3-c3ccc(F)cc3)C(=O)NC4)cnc2n1 [Compound 16, 6-(4-fluorophenyl)-5-(2-methyl-2H-pyrazolo[3,4-b]pyridin-5-yl)isoindolin-1-one] | > 10
7 | CC1CC(c2cc3c(cc2-c2ccc(F)cc2)C(=O)NC3)CC(C)N1 (centres unmarked) [Compound 68, 5-(2,6-dimethylpiperidin-4-yl)-6-(4-fluorophenyl)isoindolin-1-one] | > 10
8 | O=C1NCc2cc(C3CCNCC3)c(-c3ccc(F)cc3)cc21 [Compound 67, 6-(4-fluorophenyl)-5-(piperidin-4-yl)isoindolin-1-one] | > 10
9 | Cc1nc2cc(-c3cc4c(cc3-c3ccc(F)cc3)C(=O)NC4)ccc2[nH]1 [Compound 10, 6-(4-fluorophenyl)-5-(2-methyl-1H-benzo[d]imidazol-5-yl)isoindolin-1-one] | > 10
10 | Cc1ccc(-c2cc3c(cc2-c2ccc(F)cc2)C(=O)NC3)c(C)n1 [Compound 29, 5-(2,6-dimethylpyridin-3-yl)-6-(4-fluorophenyl)isoindolin-1-one] | 3.6
11 | O=C1NCc2cc(-c3ccc4nccn4c3)c(-c3ccc(F)cc3)cc21 [Compound 20, 6-(4-fluorophenyl)-5-(imidazo[1,2-a]pyridin-6-yl)isoindolin-1-one] | 8.31
12 | O=C1NCc2cc(C3=CCOCC3)c(-c3ccc(F)cc3)cc21 [Compound 55, 5-(3,6-dihydro-2H-pyran-4-yl)-6-(4-fluorophenyl)isoindolin-1-one] | > 10
13 | CN1CCC(c2cc3c(cc2-c2ccc(F)cc2)C(=O)NC3)CC1 [Compound 66, 6-(4-fluorophenyl)-5-(1-methylpiperidin-4-yl)isoindolin-1-one] | > 10
14 | COC1CC=C(c2cc3c(cc2-c2ccc(F)cc2)C(=O)NC3)CC1 (centres unmarked) [Compound 54, 6-(4-fluorophenyl)-5-(4-methoxycyclohex-1-en-1-yl)isoindolin-1-one] | > 10
15 | Cc1cc(F)ncc1-c1cc2c(cc1-c1ccc(F)cc1)C(=O)NC2 [Compound 37, 5-(6-fluoro-4-methylpyridin-3-yl)-6-(4-fluorophenyl)isoindolin-1-one] | > 10
16 | O=C1NCc2cc(-c3cccnc3F)c(-c3ccc(F)cc3)cc21 [Compound 40, 6-(4-fluorophenyl)-5-(2-fluoropyridin-3-yl)isoindolin-1-one] | > 10
17 | O=C1NCc2cc(C3=CCN(Cc4ccccc4)CC3)c(-c3ccc(F)cc3)cc21 [Compound 56, 5-(1-benzyl-1,2,3,6-tetrahydropyridin-4-yl)-6-(4-fluorophenyl)isoindolin-1-one] | > 10
18 | CN1CC=C(c2cc3c(cc2-c2ccc(F)cc2)C(=O)NC3)CC1 [Compound 58, 6-(4-fluorophenyl)-5-(1-methyl-1,2,3,6-tetrahydropyridin-4-yl)isoindolin-1-one] | > 10
19 | Cc1c(-c2cc3c(cc2-c2ccc(F)cc2)C(=O)NC3)cc(C#N)n1C [Compound 53, 4-(6-(4-fluorophenyl)-1-oxoisoindolin-5-yl)-1,5-dimethyl-1H-pyrrole-2-carbonitrile] | > 10
20 | O=C1NCc2cc(-c3ccc4ncsc4c3)c(-c3ccc(F)cc3)cc21 [Compound 11, 5-(benzo[d]thiazol-6-yl)-6-(4-fluorophenyl)isoindolin-1-one] | > 10

Next, values leading:

Row | IC50 [µM] | Compound
21 | 0.618 | COc1ccc(-c2cc3c(cc2-c2ccc(F)cc2F)C(=O)NC3)cc1C#N [Compound 92, 5-(6-(2,4-difluorophenyl)-1-oxoisoindolin-5-yl)-2-methoxybenzonitrile]
22 | > 10 | CC1CNCCC1c1cc2c(cc1-c1ccc(F)cc1)C(=O)NC2 (centres unmarked) [Compound 77, 6-(4-fluorophenyl)-5-(3-methylpiperidin-4-yl)isoindolin-1-one]
23 | > 10 | O=C1NCc2cc(C3=CCNC3)c(-c3ccc(F)cc3)cc21 [Compound 82, 5-(2,5-dihydro-1H-pyrrol-3-yl)-6-(4-fluorophenyl)isoindolin-1-one]
24 | 0.589 | N#Cc1cccc(-c2cc3c(cc2-c2ccc(F)cc2F)C(=O)NC3)c1 [Compound 107, 3-(6-(2,4-difluorophenyl)-1-oxoisoindolin-5-yl)benzonitrile]
25 | > 10 | N#Cc1ccc(-n2cc(-c3cc4c(cc3-c3ccc(F)cc3F)C(=O)NC4)cn2)cc1 [Compound 111, 4-(4-(6-(2,4-difluorophenyl)-1-oxoisoindolin-5-yl)-1H-pyrazol-1-yl)benzonitrile]
26 | 2.88 | N#Cc1ccc(-c2cc3c(cc2-c2ccc(F)cc2F)C(=O)NC3)c(F)c1 [Compound 103, 4-(6-(2,4-difluorophenyl)-1-oxoisoindolin-5-yl)-3-fluorobenzonitrile]
27 | > 10 | N#Cc1cc(-c2cc3c(cc2-c2ccc(F)cc2F)C(=O)NC3)ccn1 [Compound 104, 4-(6-(2,4-difluorophenyl)-1-oxoisoindolin-5-yl)picolinonitrile]
28 | > 10 | CC1(C)CC(c2cc3c(cc2-c2ccc(F)cc2)C(=O)NC3)CC(C)(C)N1 [Compound 75, 6-(4-fluorophenyl)-5-(2,2,6,6-tetramethylpiperidin-4-yl)isoindolin-1-one]
29 | 0.938 | Cc1cc(-c2cc3c(cc2-c2ccc(F)cc2F)C(=O)NC3)c(C)n1C [Compound 97, 6-(2,4-difluorophenyl)-5-(1,2,5-trimethyl-1H-pyrrol-3-yl)isoindolin-1-one]
30 | 5.1 | CN(C)c1ncccc1-c1cc2c(cc1-c1ccc(F)cc1F)C(=O)NC2 [Compound 71, 6-(2,4-difluorophenyl)-5-(2-(dimethylamino)pyridin-3-yl)isoindolin-1-one]
31 | > 10 | O=C1NCc2cc(C3CCCNC3)c(-c3ccc(F)cc3)cc21 (centres unmarked) [Compound 78, 6-(4-fluorophenyl)-5-(piperidin-3-yl)isoindolin-1-one]
32 | > 10 | Cc1nnc(-c2ccc(-c3cc4c(cc3-c3ccc(F)cc3F)C(=O)NC4)cc2F)o1 [Compound 112, 6-(2,4-difluorophenyl)-5-(3-fluoro-4-(5-methyl-1,3,4-oxadiazol-2-yl)phenyl)isoindolin-1-one]
33 | 1.86 | O=C1NCc2cc(-c3ccc(C(F)(F)F)nc3)c(-c3ccc(F)cc3F)cc21 [Compound 79, 6-(2,4-difluorophenyl)-5-(6-(trifluoromethyl)pyridin-3-yl)isoindolin-1-one]
34 | 0.925 | O=C1NCc2cc(-c3ccc4[nH]ccc4c3)c(-c3ccc(F)cc3F)cc21 [Compound 89, 6-(2,4-difluorophenyl)-5-(1H-indol-5-yl)isoindolin-1-one]
35 | > 10 | CC1CC(c2cc3c(cc2-c2ccc(F)cc2)C(=O)NC3)=CCN1 (centres unmarked) [Compound 84, 6-(4-fluorophenyl)-5-(2-methyl-1,2,3,6-tetrahydropyridin-4-yl)isoindolin-1-one]

Reference: US20260098030A1, “NEGATIVE ALLOSTERIC MODULATORS OF METABOTROPIC GLUTAMATE RECEPTOR 2” (Vanderbilt University, priority 2022, published 2026)
